The values below are quoted from earlier work in publication PMC3671928 (Analytical chemistry, 2013).

Data set [1] addresses leucine aminopeptidase (LAP). The settings on record: read-out: IC50, leucine aminopeptidase (LAP).
In data set [2] the target is puromycin-sensitive aminopeptidase (PuSA). The settings on record: read-out: IC50, puromycin-sensitive aminopeptidase (PuSA).
The target in another data set is aminopeptidase N. To be noted: read-out: IC50, aminopeptidase N.
The subject of another data set is peptidase activity. To be noted: 1 μM applied to cells for 24 h.
The test system of a further data set is U937 cells. The settings on record: prolonged exposure to 1 μM.

As for `CC(C)C[C@@H](C(=O)N[C@H](C(=O)OC1CCCC1)c1ccccc1)[C@H](O)C(=O)NO` [Tosedostat], the IC50 (commonly the point on the concentration scale where inhibition reaches its midpoint) in data set [1] was 0.1 µM; in data set [2], 0.15 µM; on aminopeptidase N it was 0.22 µM. For the same compound, the “inhibition of fragmentation of a fluorogenic substrate” value in the data set on peptidase activity is “approximately 50%”. Besides, the “effect on proliferation of U937 cells” value with U937 cells was “substantially inhibits proliferation”.
